Patent US8163728B2, “Pyrazoles” (Hoffmann-La Roche Inc., priority 2009, dated 2012)

target: T1, GABA A α5 (Homo sapiens, UniProt P18507+P31644); assay: [3H]flumazenil competition binding, human GABA A α5β3γ2 receptors in HEK293 cell membranes; details: human receptor α5β3γ2 transiently transfected in HEK293; 0.5 nM [3H]flumazenil; 1 hour at 4° C.; means of two determinations; read-out: hKi GABA A α5
T1 construct: expressed in transfected cells; host or cells: HEK293 cells, transiently transfected; membranes prepared from cell pellets
Protocol: The affinity of compounds at GABA A receptor subtypes was measured by competition for [3H]flumazenil (85 Ci/mmol; Roche) binding to HEK293 cells expressing rat (stably transfected) or human (transiently transfected) receptors of composition α1β3γ2, α2β3γ2, α3β3γ2 and α5β3γ2.
Cell pellets were suspended in Krebs-tris buffer (4.8 mM KCl, 1.2 mM CaCl2, 1.2 mM MgCl2, 120 mM NaCl, 15 mM Tris; pH 7.5; binding assay buffer), homogenized by polytron for ca. 20 sec on ice and centrifuged for 60 min at 4° C. (50000 g; Sorvall, rotor: SM24=20000 rpm). The cell pellets were re-suspended in Krebs-tris buffer and homogenized by polytron for ca. 15 sec on ice. Protein was measured (Bradford method, Bio-Rad) and aliquots of 1 mL were prepared and stored at −80° C.
Assays were incubated to equilibrium for 1 hour at 4° C. and harvested onto GF/C uni-filters (Packard) by filtration using a Packard harvester and washing with ice-cold wash buffer (50 mM Tris; pH 7.5). After drying, filter-retained radioactivity was detected by liquid scintillation counting. Ki values were calculated using Excel-Fit (Microsoft) and are the means of two determinations.

Compound	Ki [nM]
5-{(E)-2-[3-(4-Fluoro-phenyl)-5-methyl-isoxazol-4-yl]vinyl}-2H-pyrazole-3-carboxylic acid (2-hydroxy-1-methyl-ethyl)-amide [Example 136]	1
Cc1onc(-c2ccccc2)c1COc1cc(C(=O)NC2CCOC2)[nH]n1 (racemic) [Example 4, Rac-5-(5-Methyl-3-phenyl-isoxazol-4-ylmethoxy)-2H-pyrazole-3-carboxylic acid (tetra-hydro-furan-3-yl)-amide]	6.6
Cc1onc(-c2ccc(F)cn2)c1COc1cc(C(=O)NC2CCOC2)[nH]n1 (racemic) [Example 18, Rac-5-[3-(5-Fluoro-pyridin-2-yl)-5-methyl-isoxazol-4-ylmethoxy]-2H-pyrazole-3-carboxylic acid (tetrahydro-furan-3-yl)-amide]	1.2
CCCCc1noc(C)c1COc1cc(C(=O)NC2CCOC2)[nH]n1 (racemic) [Example 28, Rac-5-(3-Butyl-5-methyl-isoxazol-4-ylmethoxy)-2H-pyrazole-3-carboxylic acid (tetrahydrofuran-3-yl)-amide]	5.4
CCCCc1noc(C)c1COc1cc(C(=O)NC2CCOC(C)(C)C2)[nH]n1 (racemic) [Example 37, Rac-5-(3-Butyl-5-methyl-isoxazol-4-ylmethoxy)-2H-pyrazole-3-carboxylic acid (2,2-dimethyl-tetrahydro-pyran-4-yl)-amide]	22
Cc1onc(-c2ccccc2)c1COc1cc(C(=O)NC2CCOC2)n(C)n1 (racemic) [Example 43, Rac-2-Methyl-5-(5-methyl-3-phenyl-isoxazol-4-ylmethoxy)-2H-pyrazole-3-carboxylic acid (tetrahydro-furan-3-yl)-amide]	9.7
Cc1onc(-c2ccc(F)cc2)c1COc1cc(C(=O)NCC(O)C(F)(F)F)n(C)n1 (racemic) [Example 59, Rac-5-[3-(4-Fluoro-phenyl)-5-methyl-isoxazol-4-ylmethoxy]-2-methyl-2H-pyrazole-3-carboxylic acid (3,3,3-trifluoro-2-hydroxy-propyl)-amide]	1.8
Cc1onc(-c2ccc(F)cc2)c1COc1cc(C(=O)NC2CCOC2)n(C)n1 (racemic) [Example 72, Rac-5-[3-(4-Fluoro-phenyl)-5-methyl-isoxazol-4-ylmethoxy]-2-methyl-2H-pyrazole-3-carboxylic acid (tetrahydro-furan-3-yl)-amide]	1.5
Cc1onc(-c2ccc(F)cn2)c1COc1cc(C(=O)NC2CCOC2)n(C)n1 (racemic) [Example 81, Rac-5-[3-(5-fluoro-pyridin-2-yl)-5-methyl-isoxazol-4-ylmethoxy]-2-methyl-2H-pyrazole-3-carboxylic acid (tetrahydro-furan-3-yl)-amide]	5.9
CCCCc1noc(C)c1COc1cc(C(=O)NC(C)CO)n(C)n1 (racemic) [Example 87, Rac-5-(3-Butyl-5-methyl-isoxazol-4-ylmethoxy)-2-methyl-2H-pyrazole-3-carboxylic acid (2-hydroxy-1-methyl-ethyl)-amide]	44.7
CCCCc1noc(C)c1COc1cc(C(=O)NC2CCOC2)n(C)n1 (racemic) [Example 89, Rac-5-(3-Butyl-5-methyl-isoxazol-4-ylmethoxy)-2-methyl-2H-pyrazole-3-carboxylic acid (tetrahydro-furan-3-yl)-amide]	20.3
Cn1nc(OCc2c(-c3ccc(F)cc3)noc2CO)cc1C(=O)NC1CCOC1 (racemic) [Example 97, Rac-5-[3-(4-fluoro-phenyl)-5-hydroxymethyl-isoxazol-4-ylmethoxy]-2-methyl-2H-pyrazole-3-carboxylic acid (tetrahydro-furan-3-yl)-amide]	4.5
Cn1nc(OCc2c(-c3ccc(F)cc3)noc2CO)cc1C(=O)NC1(C)COC1 (racemic) [Example 98, Rac-5-[3-(4-fluoro-phenyl)-5-hydroxymethyl-isoxazol-4-ylmethoxy]-2-methyl-2H-pyrazole-3-carboxylic acid (3-methyl-oxetan-3-yl)-amide]	4.9
Cn1nc(OCc2c(-c3ccc(Cl)cc3)noc2CO)cc1C(=O)NC1CCOC1 (racemic) [Example 110, Rac-5-[3-(4-Chloro-phenyl)-5-hydroxymethyl-isoxazol-4-ylmethoxy]-2-methyl-2H-pyrazole-3-carboxylic acid (tetrahydro-furan-3-yl)-amide]	2.7
CCCCc1noc(C)c1COc1cc(C(=O)N[C@@H](C)CO)[nH]n1 (single isomer, unassigned) [Example 30]	25.2
Cc1onc(-c2ccc(F)cc2)c1COc1cc(C(=O)N[C@@H](C)CO)n(C)n1 (single isomer, unassigned) [Example 75, (+)-5-[3-(4-Fluoro-phenyl)-5-methyl-isoxazol-4-ylmethoxy]-2-methyl-2H-pyrazole-3-carboxylic acid ((R)-2-hydroxy-1-methyl-ethyl)-amide or 5-[3-(4-fluoro-phenyl)-5-methyl-isoxazol-4-ylmethoxy]-2-methyl-2H-pyrazole-3-carboxylic acid ((S)-2-hydroxy-1-methyl-ethyl)-amide or enantiomer]	5.7
Cc1onc(-c2ccc(F)cc2)c1COc1cc(C(=O)N[C@H](C)CO)n(C)n1 (single isomer, unassigned) [Example 76, (−)-5-[3-(4-Fluoro-phenyl)-5-methyl-isoxazol-4-ylmethoxy]-2-methyl-2H-pyrazole-3-carboxylic acid ((S)-2-hydroxy-1-methyl-ethyl)-amide or 5-[3-(4-fluoro-phenyl)-5-methyl-isoxazol-4-ylmethoxy]-2-methyl-2H-pyrazole-3-carboxylic acid ((R)-2-hydroxy-1-methyl-ethyl)-amide or enantiomer]	10.8
CCCCc1noc(C)c1COc1cc(C(=O)NC2CCOC2)[nH]n1 (single isomer, unassigned; (+)) [Example 35, (+)-(R or S)-3-((3-Butyl-5-methylisoxazol-4-yl)methoxy)-N-(tetrahydrofuran-3-yl)-1H-pyrazole-5-carboxamide]	6
Cc1onc(-c2ccc(F)cc2)c1COc1cc(C(=O)NCC(O)C(F)(F)F)n(C)n1 (single isomer, unassigned; (+)) [Example 67, (+)-5-[3-(4-Fluoro-phenyl)-5-methyl-isoxazol-4-ylmethoxy]-2-methyl-2H-pyrazole-3-carboxylic acid ((S or R)-3,3,3-trifluoro-2-hydroxy-propyl)-amide or enantiomer]	2.4
CCC(CO)NC(=O)c1cc(OCc2c(-c3ccc(F)cc3)noc2C)nn1C (single isomer, unassigned; (+)) [Example 70, (+)-5-[3-(4-Fluoro-phenyl)-5-methyl-isoxazol-4-ylmethoxy]-2-methyl-2H-pyrazole-3-carboxylic acid ((S or R)-1-hydroxymethyl-propyl)-amide]	16.7
Cc1onc(-c2ccc(F)cc2)c1COc1cc(C(=O)N[C@@H]2CCCC2O)n(C)n1 (single isomer, unassigned; (+)) [Example 74]	2
CCCCc1noc(C)c1COc1cc(C(=O)NC2CCOC2)[nH]n1 (single isomer, unassigned; (-)) [Example 34, (−)-(S or R)-3-((3-Butyl-5-methylisoxazol-4-yl)methoxy)-N-(tetrahydrofuran-3-yl)-1H-pyrazole-5-carboxamide]	5.7
